From patent US20260028354A1, “TETRAHYDRONAPHTHALENE DERIVATIVES AS ESTROGEN RECEPTOR DEGRADERS” (REGENT OF THE UNIVERSITY OF MICHIGAN, priority 2022, published 2026)

Experiment: Western blot analysis for "B" compounds
Type: cell-based
Details: read-out: Traditional Western Degradation Potency (DC50)
Summary of the method: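 Target protein levels given as relative mean band intensity over GAPDH from scanned immunoblots. Lysates of treated cells in RIPA buffer, equalized by BCA, separated on 10% gels and transferred to PVDF.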

SMILES | DC50
O=C1CCC(N2C(=O)c3cc4c(cc3C2=O)CN(CC2CCN(CC3CN(c5ccc([C@@H]6c7ccc(O)cc7CC[C@@H]6c6ccc(F)cc6)cc5)C3)CC2)C4)C(=O)N1 (stereo partly drawn) [Compound B70, 2-(2,6-dioxopiperidin-3-yl)-6-((1-((1-(4-((1R,2S)-2-(4-fluorophenyl)-6-hydroxy-1,2,3,4-tetrahydronaphthalen-1-yl)phenyl)azetidin-3-yl)methyl)piperidin-4-yl)methyl)-6,7-dihydropyrrolo[3,4-f]isoindole-1,3(2H,5H)-dione] | > 100 nM
O=C1CCC(N2C(=O)c3cc4c(cc3C2=O)CN(CC2CN(CC3CN(c5ccc([C@@H]6c7ccc(O)cc7CC[C@@H]6c6ccc(F)cc6)cc5)C3)C2)C4)C(=O)N1 (stereo partly drawn) [Compound B71, 2-(2,6-dioxopiperidin-3-yl)-6-((1-((1-(4-((1R,2S)-2-(4-fluorophenyl)-6-hydroxy-1,2,3,4-tetrahydronaphthalen-1-yl)phenyl)azetidin-3-yl)methyl)azetidin-3-yl)methyl)-6,7-dihydropyrrolo[3,4-f]isoindole-1,3(2H,5H)-dione] | > 100 nM
O=C1CCC(N2C(=O)c3cc4c(cc3C2=O)CN(C2CCN(CC3(F)CN(c5ccc([C@@H]6c7ccc(O)cc7CC[C@@H]6c6ccccc6)cc5)C3)CC2)C4)C(=O)N1 (stereo partly drawn) [Compound B73, 2-(2,6-dioxopiperidin-3-yl)-6-(1-((3-fluoro-1-(4-((1R,2S)-6-hydroxy-2-phenyl-1,2,3,4-tetrahydronaphthalen-1-yl)phenyl)azetidin-3-yl)methyl)piperidin-4-yl)-6,7-dihydropyrrolo[3,4-f]isoindole-1,3(2H,5H)-dione] | > 100 nM
O=C1CCC(N2C(=O)c3cc4c(cc3C2=O)CN(CC2CCN(CC3(F)CN(c5ccc([C@@H]6c7ccc(O)cc7CC[C@@H]6c6ccccc6)cc5)C3)CC2)C4)C(=O)N1 (stereo partly drawn) [Compound B74, 2-(2,6-dioxopiperidin-3-yl)-6-((1-((3-fluoro-1-(4-((1R,2S)-6-hydroxy-2-phenyl-1,2,3,4-tetrahydronaphthalen-1-yl)phenyl)azetidin-3-yl)methyl)piperidin-4-yl)methyl)-6,7-dihydropyrrolo[3,4-f]isoindole-1,3(2H,5H)-dione] | > 100 nM
CN(C1CCC(CN2Cc3cc4c(cc3C2)C(=O)N(C2CCC(=O)NC2=O)C4=O)CC1)C1CCN(c2ccc([C@@H]3c4ccc(O)cc4CC[C@@H]3c3ccccc3)cc2)CC1 (stereo partly drawn) [Compound B75, 2-(2,6-dioxopiperidin-3-yl)-6-((4-((1-(4-((1R,2S)-6-hydroxy-2-phenyl-1,2,3,4-tetrahydronaphthalen-1-yl)phenyl)piperidin-4-yl)(methyl)amino)cyclohexyl)methyl)-6,7-dihydropyrrolo[3,4-f]isoindole-1,3(2H,5H)-dione] | > 100 nM
O=C1CCC(N2C(=O)c3cc4c(cc3C2=O)CN(C2CCC(C(=O)N3CCN(c5ccc([C@@H]6c7ccc(O)cc7CC[C@@H]6c6ccccc6)cc5)CC3)CC2)C4)C(=O)N1 (stereo partly drawn) [Compound B77, 2-(2,6-dioxopiperidin-3-yl)-6-(4-(4-(4-((1R,2S)-6-hydroxy-2-phenyl-1,2,3,4-tetrahydronaphthalen-1-yl)phenyl)piperazine-1-carbonyl)cyclohexyl)-6,7-dihydropyrrolo[3,4-f]isoindole-1,3(2H,5H)-dione] | > 100 nM
O=C1CCC(N2Cc3cc4c(cc3C2=O)CN(C2CCN(CC3CN(c5ccc([C@@H]6c7ccc(O)cc7CC[C@@H]6c6ccccc6)cc5)C3)CC2)C4)C(=O)N1 (stereo partly drawn) [Compound B78, 3-(6-(1-((1-(4-((1R,2S)-6-hydroxy-2-phenyl-1,2,3,4-tetrahydronaphthalen-1-yl)phenyl)azetidin-3-yl)methyl)piperidin-4-yl)-1-oxo-3,5,6,7-tetrahydropyrrolo[3,4-f]isoindol-2(1H)-yl)piperidine-2,6-dione] | > 100 nM
O=C1CCC(N2C(=O)c3cc4c(cc3C2=O)CN(C(=O)C2CCN(CC3CN(c5ccc([C@@H]6c7ccc(O)cc7CC[C@@H]6c6ccccc6)cc5)C3)CC2)C4)C(=O)N1 (stereo partly drawn) [Compound B79, 2-(2,6-dioxopiperidin-3-yl)-6-(1-((1-(4-((1R,2S)-6-hydroxy-2-phenyl-1,2,3,4-tetrahydronaphthalen-1-yl)phenyl)azetidin-3-yl)methyl)piperidine-4-carbonyl)-6,7-dihydropyrrolo[3,4-f]isoindole-1,3(2H,5H)-dione] | > 100 nM
O=C1CCC(N2Cc3cc4c(cc3C2=O)CN(C(=O)C2CCN(CC3CN(c5ccc([C@@H]6c7ccc(O)cc7CC[C@@H]6c6ccccc6)cc5)C3)CC2)C4)C(=O)N1 (stereo partly drawn) [Compound B80, 3-(6-(1-((1-(4-((1R,2S)-6-hydroxy-2-phenyl-1,2,3,4-tetrahydronaphthalen-1-yl)phenyl)azetidin-3-yl)methyl)piperidine-4-carbonyl)-1-oxo-3,5,6,7-tetrahydropyrrolo[3,4-f]isoindol-2(1H)-yl)piperidine-2,6-dione] | > 100 nM

Further lines, results first:

DC50 | SMILES
10 to 100 nM | O=C1CCC(N2C(=O)c3cc4c(cc3C2=O)CN(CC2CCN(CC3CN(c5ccc([C@@H]6c7ccc(O)cc7CC[C@@H]6c6ccccc6)cc5)C3)CC2)C4)C(=O)N1 (stereo partly drawn) [Compound B62, 2-(2,6-dioxopiperidin-3-yl)-6-((1-((1-(4-((1R,2S)-6-hydroxy-2-phenyl-1,2,3,4-tetrahydronaphthalen-1-yl)phenyl)azetidin-3-yl)methyl)piperidin-4-yl)methyl)-6,7-dihydropyrrolo[3,4-f]isoindole-1,3(2H,5H)-dione]
> 100 nM | O=C1CCC(N2C(=O)c3cc4c(cc3C2=O)CN(CC2(F)CCN(CC3CN(c5ccc([C@@H]6c7ccc(O)cc7CC[C@@H]6c6ccccc6)cc5)C3)CC2)C4)C(=O)N1 (stereo partly drawn) [Compound B63, 2-(2,6-dioxopiperidin-3-yl)-6-((4-fluoro-1-((1-(4-((1R,2S)-6-hydroxy-2-phenyl-1,2,3,4-tetrahydronaphthalen-1-yl)phenyl)azetidin-3-yl)methyl)piperidin-4-yl)methyl)-6,7-dihydropyrrolo[3,4-f]isoindole-1,3(2H,5H)-dione]
> 100 nM | O=C1CCC(N2C(=O)c3cc4c(cc3C2=O)CN(C2CN(CC3CCN(c5ccc([C@@H]6c7ccc(O)cc7CC[C@@H]6c6ccccc6)cc5)CC3)C2)C4)C(=O)N1 (stereo partly drawn) [Compound B65, 2-(2,6-dioxopiperidin-3-yl)-6-(1-((1-(4-((1R,2S)-6-hydroxy-2-phenyl-1,2,3,4-tetrahydronaphthalen-1-yl)phenyl)piperidin-4-yl)methyl)azetidin-3-yl)-6,7-dihydropyrrolo[3,4-f]isoindole-1,3(2H,5H)-dione]
10 to 100 nM | O=C1CCC(N2C(=O)c3cc4c(cc3C2=O)CN(C2CCN(CC3CCN(c5ccc([C@@H]6c7ccc(O)cc7CC[C@@H]6c6ccc(F)cc6)cc5)CC3)CC2)C4)C(=O)N1 (stereo partly drawn) [Compound B66, 2-(2,6-dioxopiperidin-3-yl)-6-(1-((1-(4-((1R,2S)-2-(4-fluorophenyl)-6-hydroxy-1,2,3,4-tetrahydronaphthalen-1-yl)phenyl)piperidin-4-yl)methyl)piperidin-4-yl)-6,7-dihydropyrrolo[3,4-f]isoindole-1,3(2H,5H)-dione]
> 100 nM | O=C1CCC(N2C(=O)c3cc4c(cc3C2=O)CN(CC2CN(CC3CCN(c5ccc([C@@H]6c7ccc(O)cc7CC[C@@H]6c6ccc(F)cc6)cc5)CC3)C2)C4)C(=O)N1 (stereo partly drawn) [Compound B67, 2-(2,6-dioxopiperidin-3-yl)-6-((1-((1-(4-((1R,2S)-2-(4-fluorophenyl)-6-hydroxy-1,2,3,4-tetrahydronaphthalen-1-yl)phenyl)piperidin-4-yl)methyl)azetidin-3-yl)methyl)-6,7-dihydropyrrolo[3,4-f]isoindole-1,3(2H,5H)-dione]
< 10 nM | O=C1CCC(N2Cc3cc4c(cc3C2=O)CN(C2CCN(CC3CCN(c5ccc([C@@H]6c7ccc(O)cc7CC[C@@H]6c6ccc(F)cc6)cc5)CC3)CC2)C4)C(=O)N1 (stereo partly drawn) [Compound B68, 3-(6-(1-((1-(4-((1R,2S)-2-(4-fluorophenyl)-6-hydroxy-1,2,3,4-tetrahydronaphthalen-1-yl)phenyl)piperidin-4-yl)methyl)piperidin-4-yl)-1-oxo-3,5,6,7-tetrahydropyrrolo[3,4-f]isoindol-2(1H)-yl)piperidine-2,6-dione]
> 100 nM | O=C1CCC(N2C(=O)c3cc4c(cc3C2=O)CN(C2CCN(CC3CN(c5ccc([C@@H]6c7ccc(O)cc7CC[C@@H]6c6ccc(F)cc6)cc5)C3)CC2)C4)C(=O)N1 (stereo partly drawn) [Compound B69, 2-(2,6-dioxopiperidin-3-yl)-6-(1-((1-(4-((1R,2S)-2-(4-fluorophenyl)-6-hydroxy-1,2,3,4-tetrahydronaphthalen-1-yl)phenyl)azetidin-3-yl)methyl)piperidin-4-yl)-6,7-dihydropyrrolo[3,4-f]isoindole-1,3(2H,5H)-dione]
10 to 100 nM | O=C1CCC(N2Cc3cc4c(cc3C2=O)CN(C2CCN(CC3CN(c5ccc([C@@H]6c7ccc(O)cc7CC[C@@H]6c6ccc(F)cc6)cc5)C3)CC2)C4)C(=O)N1 (stereo partly drawn) [Compound B72, 3-(6-(1-((1-(4-((1R,2S)-2-(4-fluorophenyl)-6-hydroxy-1,2,3,4-tetrahydronaphthalen-1-yl)phenyl)azetidin-3-yl)methyl)piperidin-4-yl)-1-oxo-3,5,6,7-tetrahydropyrrolo[3,4-f]isoindol-2(1H)-yl)pipcridinc-2,6-dionc]
10 to 100 nM | O=C1CCC(N2C(=O)c3cc4c(cc3C2=O)CN(C2CCC(CN3CCN(c5ccc([C@@H]6c7ccc(O)cc7CC[C@@H]6c6ccccc6)cc5)CC3)CC2)C4)C(=O)N1 (stereo partly drawn) [Compound B76, 2-(2,6-dioxopiperidin-3-yl)-6-(4-((4-(4-((1R,2S)-6-hydroxy-2-phenyl-1,2,3,4-tetrahydronaphthalen-1-yl)phenyl)piperazin-1-yl)methyl)cyclohexyl)-6,7-dihydropyrrolo[3,4-f]isoindole-1,3(2H,5H)-dione]
10 to 100 nM | O=C1CCC(N2C(=O)c3cc4c(cc3C2=O)CN(CC2CCC(N3CCN(c5ccc([C@@H]6c7ccc(O)cc7CC[C@@H]6c6ccccc6)cc5)CC3)CC2)C4)C(=O)N1 (stereo partly drawn) [Compound B83, 2-(2,6-dioxopiperidin-3-yl)-6-((4-(4-(4-((1R,2S)-6-hydroxy-2-phenyl-1,2,3,4-tetrahydronaphthalen-1-yl)phenyl)piperazin-1-yl)cyclohcxyl)mcthyl)-6,7-dihydropyrrolo[3,4-f]isoindolc-1,3(2H,5H)-dione]
